Test results taken from patent US9695155B2, “Herbicidal substituted pyrimidinyloxy benzene compounds” (E. I. DU PONT DE NEMOURS AND COMPANY, priority 2013, dated 2017).

Columns and labels:
Assay in all cases: Test E postemergence
wild poinsettia = type: in vivo, Euphorbia heterophylla
Summary of the method: (§1)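 Compound in a non-phytotoxic solvent mixture with surfactant was applied preemergence to seeds in silt loam soil, or postemergence to plants 2 to 18 cm tall grown in peat-based potting medium. Plants were kept in a greenhouse for 14 to 21 days, then rated visually against untreated controls on a 0 (no effect) to 100 (complete control) scale.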

soybean = type: in vivo, Glycine max
Summary of the method: as §1

Italian ryegrass = type: in vivo, Lolium multiflorum
Text: Seeds of plant species selected from corn (Zea mays), soybean (Glycine max), velvetleaf (Abutilon theophrasti), lambsquarters (Chenopodium album), wild poinsettia (Euphorbia heterophylla), palmer pigweed (Amaranthus palmeri), waterhemp (common waterhemp, Amaranthus rudis), surinam grass (Brachiaria decumbens), large (Lg) crabgrass (Digitaria sanguinalis), Brazilian crabgrass (Digitaria horizontalis), fall panicum (Panicum dichotomiflorum), giant foxtail (Setaria faberii), green foxtail (Setaria viridis), goosegrass (Eleusine indica), johnsongrass (Sorghum halepense), ragweed (common ragweed, Ambrosia elatior), barnyardgrass (Echinochloa crus-galli), sandbur (southern sandbur, Cenchrus echinatus), arrowleaf sida (Sida rhombifolia), Italian ryegrass (Lolium multiflorum), dayflower (Virginia (VA) dayflower, Commelina virginica), field bindweed (Convolvulus arvensis), morningglory (Ipomoea coccinea), nightshade (eastern black nightshade, Solanum ptycanthum), kochia (Kochia scoparia), yellow nutsedge (Cyperus esculentus), cocklebur (common cocklebur, Xanthium strumarium), smartweed (ladysthumb smartweed, and hairy beggarticks (Bidens pilosa), were planted into a silt loam soil and treated preemergence with test chemicals formulated in a non-phytotoxic solvent mixture which included a surfactant.
At the same time, plants from these crop and weed species and also horseweed (Canada horseweed, Conyza canadensis), waterhemp_RES1, (ALS & Triazine resistant common waterhemp, Amaranthus rudis), and waterhemp_RES2, (ALS & HPPD resistant common waterhemp, Amaranthus rudis) were planted in pots containing Redi-Earth® planting medium (Scotts Company, 14111 Scottslawn Road, Marysville, Ohio 43041) comprising spaghnum peat moss, vermiculite, wetting agent and starter nutrients were treated with postemergence applications of test chemicals formulated in the same manner. Plants ranged in height from 2 to 18 cm for postemergence treatments (1- to 4-leaf stage). Treated plants and controls were maintained in a greenhouse for 14 to 21 days, after which time all species were compared to controls and visually evaluated. Plant response ratings, summarized in Table E, are based on a scale of 0 to 100 where 0 is no effect and 100 is complete control. A dash (-) response means no test result.

[1] = test system: waterhemp_RES2 (ALS & HPPD resistant common waterhemp); type: in vivo, Amaranthus rudis
Summary of the method: as §1

[2] = Postemergence, 31 g ai/ha, scale 0 to 100
[3] = Postemergence, 62 g ai/ha, scale 0 to 100
[4] = Postemergence, 125 g ai/ha, scale 0 to 100
[5] = postemergence, 8 g ai/ha, scale 0 to 100, 0 no effect, 100 complete control
[6] = postemergence, 16 g ai/ha, scale 0 to 100, 0 no effect, 100 complete control

Clc1cnc(Oc2cccc(Br)c2-n2cc(Br)cn2)nc1 [Compound 65]
Plant response rating, Poinsettia, Wild (wild poinsettia; [2]): 20 | Plant response rating, Poinsettia, Wild (wild poinsettia; [3]): 20 | Plant response rating, Poinsettia, Wild (wild poinsettia; [4]): 40 | Plant response rating, Poinsettia, Wild (wild poinsettia; [5]): 15 | Plant response rating, Poinsettia, Wild (wild poinsettia; [6]): 20 | Plant response rating, Soybean (soybean; [2]): 20 | Plant response rating, Soybean (soybean; [3]): 50 | Plant response rating, Soybean (soybean; [4]): 98 | Plant response rating, Soybean (soybean; [5]): 15 | Plant response rating, Soybean (soybean; [6]): 20 | Plant response rating, Ryegrass, Italian (Italian ryegrass; [2]): 0 | Plant response rating, Ryegrass, Italian (Italian ryegrass; [3]): 0 | Plant response rating, Ryegrass, Italian (Italian ryegrass; [4]): 0 | Plant response rating, Ryegrass, Italian (Italian ryegrass; [5]): 0 | Plant response rating, Ryegrass, Italian (Italian ryegrass; [6]): 0 | Plant response rating, Waterhemp_RES2 [1, 2]: 90 | Plant response rating, Waterhemp_RES2 [1, 3]: 95 | Plant response rating, Waterhemp_RES2 [1, 4]: 98 | Plant response rating, Waterhemp_RES2 [1, 6]: 80
